Assay [1] addresses T1, hRIPK1 (aa 1-375) fusion protein (Homo sapiens, UniProt Q13546).
T1 construct: hRIPK1 (aa 1-375) fusion protein
T1 sequence (Q13546 1-375): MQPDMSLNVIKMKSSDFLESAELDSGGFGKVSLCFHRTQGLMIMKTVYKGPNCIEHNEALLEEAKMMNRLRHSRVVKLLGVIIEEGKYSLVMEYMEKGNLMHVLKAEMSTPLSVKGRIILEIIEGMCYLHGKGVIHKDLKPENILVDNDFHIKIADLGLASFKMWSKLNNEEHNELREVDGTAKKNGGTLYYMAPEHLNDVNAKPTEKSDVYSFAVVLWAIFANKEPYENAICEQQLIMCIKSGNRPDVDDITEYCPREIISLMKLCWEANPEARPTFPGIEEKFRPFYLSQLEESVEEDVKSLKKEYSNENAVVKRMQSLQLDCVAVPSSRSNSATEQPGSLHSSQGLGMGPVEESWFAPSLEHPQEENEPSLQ
As to the kind of experiment: ADP-Glo kinase assay: catalytic activity of RIPK1 (autophosphorylation, conversion of ATP to ADP). It is filed as biochemical. The essentials:
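hRIPK1 (aa 1-375) fusion protein (3.6 μg/ml final) was preincubated 30 min at rt with compound (33300-1.69 nM, 1% DMSO), then 50 μM ATP was added for 240 min at rt. ADP from autophosphorylation was measured by ADP-Glo luminescence and curves fitted by nonlinear regression.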

The subject of assay [2] is U937 cells. As to the kind of experiment: Cellular assay in U937 cells: activity of RIPK1 inhibitors on TNFα/zVAD.fmk-induced cell death (necroptosis), CellTiter 96 AQueous (MTS) readout. It is filed as cell-based. Conditions: Homo sapiens, U-937. The essentials:
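Necroptosis was measured by viable-cell MTS reduction (4 h, absorbance 490 nm) after overnight (18–24 h) 37° C culture. Cell suspensions of U937 cells carried TNFα (100 ng/ml) plus zVAD.fmk (50 μM) before compound was added. A 10-point curve (10 μM–0.26 nM or 1 μM–0.07 nM) was run in duplicate, normalised to the control lacking TNFα/zVAD.fmk.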

For `N#Cc1cc(F)cc([C@@H]2CCON2C(=O)[C@H]2CC[C@H](Cc3cncc(F)c3)CC2)c1` [compound 148, trans-3-fluoro-5-[(3S)-2-[4-[(5-fluoro-3-pyridyl)methyl]cyclohexanecarbonyl]isoxazolidin-3-yl]benzonitrile], the values for the IC50 in assay [1] and in assay [2] were 18 nM and 4 nM, respectively.

For the compound `Cc1cn2ncc(C[C@H]3CC[C@H](C(=O)N4OCC[C@H]4c4cnccn4)CC3)cc2n1` [compound 349, trams-[4-[(2-methylimidazo[1,2-b]pyridazin-7-yl)methyl]cyclohexyl]-[(3S)-3-pyrazin-2-yl-1,2-oxazolidin-2-yl]methanone], the figures for the IC50 in assay [1] and in assay [2] were 42 nM and 108 nM, respectively.

Consider `Cc1cn2cc(C[C@H]3CC[C@H](C(=O)N4OCC[C@H]4c4cnccn4)CC3)ccc2n1` [compound 226, trans-[4-[(2-methylimidazo[1,2-a]pyridin-6-yl)methyl]cyclohexyl]-[(3S)-3-pyrazin-2-ylisoxazolidin-2-yl]methanone], for which the IC50 (commonly the concentration that gives 50% inhibition) was 44 nM in assay [1] and 40 nM in assay [2].

Take `Cc1ncc(C[C@H]2CC[C@H](C(=O)N3OCC[C@H]3c3cc(F)c(C)c(C#N)c3)CC2)cc1C#N` [compound 286, trans-5-[[4-[(3S)-3-(3-cyano-5-fluoro-4-methyl-phenyl)isoxazolidine-2-carbonyl]cyclohexyl]methyl]-2-methyl-pyridine-3-carbonitrile]: the IC50 in assay [1] and in assay [2] was 1 nM throughout.

Take `O=C([C@H]1C[C@H](Cn2cnc3cc(F)ccc32)C1)N1OCC[C@H]1c1cc(F)cc(F)c1` [compound 115, trans-((S)-3-(3,5-difluorophenyl)isoxazolidin-2-yl)(3-((5-fluoro-1H-benzo[d]imidazol-1-yl)methyl)cyclobutyl)methanone]: the IC50 in assay [1] came to 31 nM; in assay [2], 138 nM.

On to `O=C([C@H]1CC[C@H](Cc2cc(F)cc(CCO)c2)CC1)N1OCC[C@H]1c1cc(F)cc(F)c1` [compound 283, trans-[(3S)-3-(3,5-difluorophenyl)isoxazolidin-2-yl]-[4-[[3-fluoro-5-(2-hydroxyethyl)phenyl]methyl]cyclohexyl]methanone], for which the IC50 in assay [1] was determined as 16 nM; in assay [2] it was 13 nM.

As for `Cc1ccc([C@@H]2CCON2C(=O)[C@H]2C[C@H](Cn3cnc4cc(F)ccc43)C2)cc1` [compound 114, trans-(3-((5-fluoro-1H-benzo[d]imidazol-1-yl)methyl)cyclobutyl)((S)-3-(p-tolyl)isoxazolidin-2-yl)methanone], the IC50 in assay [1] was determined as 34 nM; in assay [2], 174 nM.

With `Cc1ccc([C@@H]2CCON2C(=O)[C@H]2CC[C@H](Cc3cc(-n4ccnc4C)ncn3)CC2)cc1` [compound 136, trans-[4-[[6-(2-methylimidazol-1-yl)pyrimidin-4-yl]methyl]cyclohexyl]-[(3S)-3-(p-tolyl)isoxazolidin-2-yl]methanone], the IC50 in assay [1] and in assay [2] was 26 nM throughout.

Turning to `N#Cc1cc2cnn(C[C@H]3CC[C@H](C(=O)N4OCC[C@H]4c4cc(F)cc(F)c4)CC3)c2cc1F` [compound 67, trans-1-((4-((S)-3-(3,5-difluorophenyl)isoxazolidine-2-carbonyl)cyclohexyl)methyl)-6-fluoro-1H-indazole-5-carbonitrile], the IC50 was 15 nM in assay [1] and 2 nM in assay [2].

As for `N#Cc1cncc([C@@H]2CCON2C(=O)[C@H]2CC[C@H](Cn3ccc4ncc(C#N)cc43)CC2)c1` [compound 108, trans-1-((4-((S)-3-(5-cyanopyridin-3-yl)isoxazolidine-2-carbonyl)cyclohexyl)methyl)-1H-pyrrolo[3,2-b]pyridine-6-carbonitrile], the IC50 in assay [1] was 27 nM; in assay [2], 18 nM.

In the case of `N#Cc1cncc([C@@H]2CCON2C(=O)[C@H]2CC[C@H](Cn3cnc4ccc(F)cc43)CC2)c1` [compound 106, trans-5-((S)-2-(4-((6-fluoro-1H-benzo[d]imidazol-1-yl)methyl)cyclohexane-1-carbonyl)isoxazolidin-3-yl)nicotinonitrile], the IC50 in assay [1] came out at 46 nM; in assay [2] it was 54 nM.

As to `N#Cc1cc(F)cc([C@@H]2CCON2C(=O)[C@H]2CC[C@H](Cn3cc4ncc(C#N)cc4n3)CC2)c1` [compound 24, trans-2-((4-((S)-3-(3-cyano-5-fluorophenyl)isoxazolidine-2-carbonyl)cyclohexyl)methyl)-2H-pyrazolo[4,3-b]pyridine-6-carbonitrile], the IC50 in assay [1] was 109 nM; in assay [2], 471 nM.

As for `CNC(=O)c1cc(F)cc(C[C@H]2CC[C@H](C(=O)N3OCC[C@H]3c3ccc(F)cc3)CC2)c1` [compound 165, trans-3-fluoro-5-[[4-[(3S)-3-(4-fluorophenyl)isoxazolidine-2-carbonyl]cyclohexyl]methyl]-N-methyl-benzamide], the IC50 was 5 nM in assay [1] and 7 nM in assay [2].

In the case of `N#Cc1ccc2cnn(C[C@H]3CC[C@H](C(=O)N4OCC[C@H]4c4cnccn4)CC3)c2c1` [compound 200, trans-1-[[4-[(3S)-3-pyrazin-2-ylisoxazolidine-2-carbonyl]cyclohexyl]methyl]indazole-6-carbonitrile], the IC50 amounted to 29 nM in assay [1] and 4 nM in assay [2].

With `N#Cc1cnc2ccn(C[C@H]3CC[C@H](C(=O)N4OCC[C@H]4c4ccccn4)CC3)c2c1` [compound 188, trans-1-[[4-[(3S)-3-(2-pyridyl)isoxazolidine-2-carbonyl]cyclohexyl]methyl]pyrrolo[3,2-b]pyridine-6-carbonitrile], the values for the IC50 in assay [1] and in assay [2] were 37 nM and 124 nM, respectively.

For the compound `Cc1ccc(C[C@H]2CC[C@H](C(=O)N3OCC[C@H]3c3cc(F)cc(F)c3)CC2)cc1C(N)=O` [compound 132, trans-5-[[4-[(3S)-3-(3,5-difluorophenyl)isoxazolidine-2-carbonyl]cyclohexyl]methyl]-2-methyl-benzamide], the IC50 in assay [1] worked out at 13 nM; in assay [2] it was 4 nM.

For `Cc1ncc([C@@H]2CCON2C(=O)[C@H]2CC[C@H](Cc3cc(C)c4ncnn4c3)CC2)cc1F` [compound 335, trans-[(3S)-3-(5-fluoro-6-methylpyridin-3-yl)-1,2-oxazolidin-2-yl]-[4-[(8-methyl-[1,2,4]triazolo[1,5-a]pyridin-6-yl)methyl]cyclohexyl]methanone], the IC50 in assay [1] was 27 nM; in assay [2], 11 nM.

Turning to `N#Cc1cc(F)cc([C@@H]2CCON2C(=O)[C@H]2CC[C@H](Cn3cc4ccc(C#N)cc4n3)CC2)c1` [compound 30, trans-2-((4-((S)-3-(3-cyano-5-fluorophenyl)isoxazolidine-2-carbonyl)cyclohexyl)methyl)-2H-indazole-6-carbonitrile], the results for the IC50 in assay [1] and in assay [2] were 39 nM and 68 nM, respectively.

For the compound `COc1cc(C[C@H]2CC[C@H](C(=O)N3OCC[C@H]3c3cncc(C)c3)CC2)cn2nc(C)nc12` [compound 383, trans-[4-[(8-methoxy-2-methyl-[1,2,4]triazolo[1,5-a]pyridin-6-yl)methyl]cyclohexyl]-[(3S)-3-(5-methylpyridin-3-yl)-1,2-oxazolidin-2-yl]methanone], the results for the IC50 in assay [1] and in assay [2] were 81 nM and 47 nM, respectively.

On to `N#Cc1cncc([C@@H]2CCON2C(=O)[C@H]2CC[C@H](Cn3cc4ccc(C#N)cc4n3)CC2)c1` [compound 127, trans-2-((4-((S)-3-(5-cyanopyridin-3-yl)isoxazolidine-2-carbonyl)cyclohexyl)methyl)-2H-indazole-6-carbonitrile], for which the IC50 in assay [1] amounted to 29 nM; in assay [2], 15 nM.

In the case of `Cc1nc([C@@H]2CCON2C(=O)[C@H]2CC[C@H](Cc3ccc4nnc(C)n4c3C)CC2)cs1` [compound 375, [4-(3,5-Dimethyl-[1,2,4]triazolo[4,3-a]pyridin-6-ylmethyl)-cyclohexyl]-[(S)-3-(2-methyl-thiazol-4-yl)-isoxazolidin-2-yl]-methanone], the IC50 in assay [1] worked out at 63 nM; in assay [2], 10 nM.

As for `N#Cc1cc(F)cc([C@@H]2CCON2C(=O)[C@H]2CC[C@H](Cc3cc(F)c4ncnn4c3)CC2)c1` [compound 206, trans-3-fluoro-5-[(3S)-2-[4-[(8-fluoro-[1,2,4]triazolo[1,5-a]pyridin-6-yl)methyl]cyclohexanecarbonyl]isoxazolidin-3-yl]benzonitrile], the IC50 was 16 nM in assay [1] and 9 nM in assay [2].

For `Cc1cc([C@@H]2CCON2C(=O)[C@H]2CC[C@H](Cn3cnc4cc(F)c(C#N)cc43)CC2)co1` [compound 39, trans-5-fluoro-1-((4-((S)-3-(5-methylfuran-3-yl)isoxazolidine-2-carbonyl)cyclohexyl)methyl)-1H-benzo[d]imidazole-6-carbonitrile], the IC50 in assay [1] came to 28 nM; in assay [2], 15 nM.

Consider `Cn1nccc1-c1cc(F)cc(C[C@H]2CC[C@H](C(=O)N3OCC[C@H]3c3cnccn3)CC2)c1` [compound 211, trans-[4-[[3-fluoro-5-(2-methylpyrazol-3-yl)phenyl]methyl]cyclohexyl]-[(3S)-3-pyrazin-2-ylisoxazolidin-2-yl]methanone], for which the results for the IC50 in assay [1] and in assay [2] were 18 nM and 20 nM, respectively.

These data come from US20260158009A1 (GENZYME CORPORATION, priority 2023, published 2026).
